How the values were obtained:
Thromboxane-A synthase = biological target: T1, Thromboxane-A synthase (Homo sapiens, UniProt P24557); test: biochemical; type: tissue-based, Platelet;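 further: enzyme inhibition assay with PGH2 supplied as substrate; in other assays of this panel Not Active means under 50% inhibition at 10 µM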
T1 sequence (P24557 whole entry): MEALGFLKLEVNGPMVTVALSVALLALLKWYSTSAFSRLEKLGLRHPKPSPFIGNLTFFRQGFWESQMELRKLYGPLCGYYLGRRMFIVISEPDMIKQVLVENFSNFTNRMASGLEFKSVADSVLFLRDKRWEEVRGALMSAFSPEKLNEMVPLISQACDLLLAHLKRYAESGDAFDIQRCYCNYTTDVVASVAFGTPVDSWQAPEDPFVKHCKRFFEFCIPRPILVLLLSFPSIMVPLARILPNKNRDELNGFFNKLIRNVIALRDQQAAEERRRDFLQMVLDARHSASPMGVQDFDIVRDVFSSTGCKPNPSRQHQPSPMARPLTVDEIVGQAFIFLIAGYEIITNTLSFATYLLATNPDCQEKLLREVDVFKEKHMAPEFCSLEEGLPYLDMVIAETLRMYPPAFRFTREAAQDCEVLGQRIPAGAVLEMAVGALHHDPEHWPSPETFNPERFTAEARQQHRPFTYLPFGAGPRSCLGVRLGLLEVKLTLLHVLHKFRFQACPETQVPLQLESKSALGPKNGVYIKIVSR

[1] = DRUGMATRIX: GABAA, Muscimol, Central radioligand binding (ligand: [3H] Muscimol); type: cell membranes, Rattus norvegicus, Wistar, Brain, Membrane; conditions: Not Active = under 50% inhibition at 10 µM
Cytochrome P450 1A2 = biological target: T2, Cytochrome P450 1A2 (Homo sapiens, UniProt P05177); conditions: bti-tn-5b1-4; further: in other assays of this panel Not Active means under 50% inhibition at 10 µM
T2 sequence (P05177 whole entry): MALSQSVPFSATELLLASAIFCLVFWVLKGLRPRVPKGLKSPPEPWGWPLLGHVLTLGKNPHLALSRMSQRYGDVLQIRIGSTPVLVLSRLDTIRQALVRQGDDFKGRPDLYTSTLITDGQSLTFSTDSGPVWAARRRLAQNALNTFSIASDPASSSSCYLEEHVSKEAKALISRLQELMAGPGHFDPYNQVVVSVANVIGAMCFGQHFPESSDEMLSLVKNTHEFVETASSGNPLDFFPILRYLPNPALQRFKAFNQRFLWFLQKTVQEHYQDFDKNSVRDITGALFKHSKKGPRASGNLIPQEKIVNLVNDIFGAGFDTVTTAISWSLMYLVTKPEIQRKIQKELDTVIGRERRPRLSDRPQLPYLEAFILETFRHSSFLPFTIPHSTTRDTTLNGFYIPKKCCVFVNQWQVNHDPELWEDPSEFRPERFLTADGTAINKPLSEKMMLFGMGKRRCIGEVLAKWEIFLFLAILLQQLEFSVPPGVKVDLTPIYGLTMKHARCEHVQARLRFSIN

[2] = DRUGMATRIX: Calcium Channel Type L, Dihydropyridine radioligand binding (ligand: [3H] Nitrendipine); type: cell membranes, Rattus norvegicus, Wistar, Cerebral cortex, Membrane; conditions: Not Active = under 50% inhibition at 10 µM
Substance-K receptor = biological target: T3, Substance-K receptor (Homo sapiens, UniProt P21452); type: cell membranes, CHO, Membrane; conditions: cho; further: in other assays of this panel Not Active means under 50% inhibition at 10 µM
T3 sequence (P21452 whole entry): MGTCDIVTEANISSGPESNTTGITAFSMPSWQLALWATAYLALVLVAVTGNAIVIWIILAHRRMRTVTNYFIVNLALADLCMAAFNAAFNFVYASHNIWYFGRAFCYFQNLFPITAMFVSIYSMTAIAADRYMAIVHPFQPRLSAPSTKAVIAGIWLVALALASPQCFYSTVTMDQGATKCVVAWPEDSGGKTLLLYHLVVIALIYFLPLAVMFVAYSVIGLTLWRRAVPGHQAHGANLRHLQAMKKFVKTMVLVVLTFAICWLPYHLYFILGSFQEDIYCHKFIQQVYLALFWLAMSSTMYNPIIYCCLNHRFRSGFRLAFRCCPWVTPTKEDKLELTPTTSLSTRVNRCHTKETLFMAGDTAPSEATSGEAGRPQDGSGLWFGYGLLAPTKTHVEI

D(1A) dopamine receptor = D(1A) dopamine receptor (Homo sapiens, UniProt P21728); test: DRUGMATRIX: Dopamine D1 radioligand binding (ligand: [3H] SCH-23390); type: cell membranes, Membrane; conditions: cho; Not Active = under 50% inhibition at 10 µM
Sequence of D(1A) dopamine receptor (P21728 whole entry): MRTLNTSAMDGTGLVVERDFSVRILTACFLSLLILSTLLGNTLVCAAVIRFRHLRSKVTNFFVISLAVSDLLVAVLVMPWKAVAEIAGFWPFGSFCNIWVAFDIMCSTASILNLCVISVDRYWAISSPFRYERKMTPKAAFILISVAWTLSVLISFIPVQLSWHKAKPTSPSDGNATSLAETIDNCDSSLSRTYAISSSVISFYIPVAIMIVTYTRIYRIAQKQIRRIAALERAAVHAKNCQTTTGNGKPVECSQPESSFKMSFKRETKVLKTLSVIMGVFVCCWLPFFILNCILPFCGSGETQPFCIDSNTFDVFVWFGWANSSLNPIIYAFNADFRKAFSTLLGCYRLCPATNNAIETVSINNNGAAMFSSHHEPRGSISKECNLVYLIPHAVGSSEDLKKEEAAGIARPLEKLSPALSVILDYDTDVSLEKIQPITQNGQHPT

[3] = biological target: Tyrosine-protein kinase Lck (Homo sapiens, UniProt P06239); test: DRUGMATRIX: Protein Tyrosine Kinase, LCK enzyme inhibition (substrate: Poly(Glu:Tyr)); type: cell-based, Insect cells; conditions: insect cells; Not Active = under 50% inhibition at 10 µM
Sequence of Tyrosine-protein kinase Lck (P06239 whole entry): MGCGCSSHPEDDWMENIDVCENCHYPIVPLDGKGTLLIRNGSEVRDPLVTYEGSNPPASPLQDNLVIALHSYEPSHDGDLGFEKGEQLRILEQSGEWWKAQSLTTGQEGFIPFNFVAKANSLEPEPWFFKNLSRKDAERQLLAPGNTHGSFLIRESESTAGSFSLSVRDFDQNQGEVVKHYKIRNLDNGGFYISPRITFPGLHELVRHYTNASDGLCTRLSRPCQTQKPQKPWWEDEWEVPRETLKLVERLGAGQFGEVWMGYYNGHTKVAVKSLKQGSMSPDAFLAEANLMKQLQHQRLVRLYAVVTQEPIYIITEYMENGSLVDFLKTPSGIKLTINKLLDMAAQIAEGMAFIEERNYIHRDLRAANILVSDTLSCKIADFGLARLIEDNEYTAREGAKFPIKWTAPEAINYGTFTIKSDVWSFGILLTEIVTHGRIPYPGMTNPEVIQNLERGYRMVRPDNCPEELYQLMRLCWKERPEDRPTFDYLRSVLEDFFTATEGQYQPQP

[4] = DRUGMATRIX: Platelet-Derived Growth Factor (PDGF) radioligand binding (ligand: [125I] PDGF); type: cell-based; conditions: nih3t3; Not Active = under 50% inhibition at 10 µM
Progesterone receptor = biological target: T4, Progesterone receptor (Bos taurus, UniProt Q690N0); test: DRUGMATRIX: Progesterone radioligand binding (ligand: [3H] R-5020); type: tissue-based, Uterus; conditions: Not Active = under 50% inhibition at 10 µM
T4 sequence (Q690N0 whole entry): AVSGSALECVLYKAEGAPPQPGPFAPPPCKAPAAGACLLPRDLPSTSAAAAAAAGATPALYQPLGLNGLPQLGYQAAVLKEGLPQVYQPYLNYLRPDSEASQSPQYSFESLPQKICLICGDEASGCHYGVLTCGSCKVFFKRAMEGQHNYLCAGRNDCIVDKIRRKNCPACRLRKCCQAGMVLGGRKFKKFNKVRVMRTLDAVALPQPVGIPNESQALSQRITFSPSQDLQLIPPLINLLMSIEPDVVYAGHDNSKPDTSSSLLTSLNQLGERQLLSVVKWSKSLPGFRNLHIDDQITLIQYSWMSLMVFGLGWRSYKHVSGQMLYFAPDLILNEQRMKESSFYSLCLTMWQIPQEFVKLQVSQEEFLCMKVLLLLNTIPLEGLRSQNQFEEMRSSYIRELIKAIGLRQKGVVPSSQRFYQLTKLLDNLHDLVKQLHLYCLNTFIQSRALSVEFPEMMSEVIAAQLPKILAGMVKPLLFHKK

[5] = biological target: T5, Cholecystokinin receptor type A (Homo sapiens, UniProt P32238); type: cell membranes, Membrane; conditions: 1321-n1; further: in other assays of this panel Not Active means under 50% inhibition at 10 µM
T5 sequence (P32238 whole entry): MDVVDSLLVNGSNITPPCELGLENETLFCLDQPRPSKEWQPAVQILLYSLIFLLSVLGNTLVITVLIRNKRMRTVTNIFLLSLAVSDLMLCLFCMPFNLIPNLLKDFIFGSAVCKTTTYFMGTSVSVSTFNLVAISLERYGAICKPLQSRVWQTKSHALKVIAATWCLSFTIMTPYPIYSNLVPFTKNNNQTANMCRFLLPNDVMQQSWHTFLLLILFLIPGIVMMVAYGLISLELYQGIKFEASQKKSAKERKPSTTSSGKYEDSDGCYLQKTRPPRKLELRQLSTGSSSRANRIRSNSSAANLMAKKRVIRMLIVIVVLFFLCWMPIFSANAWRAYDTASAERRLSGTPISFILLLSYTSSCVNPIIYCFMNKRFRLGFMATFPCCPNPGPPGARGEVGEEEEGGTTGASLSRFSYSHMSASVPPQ

Row | Structure (SMILES) | IC50 (Thromboxane-A synthase; platelet) | IC50 [1] | Ki [1] | IC50 (Cytochrome P450 1A2) | Ki (Cytochrome P450 1A2) | IC50 [2] | Ki [2] | IC50 (Substance-K receptor) | IC50 (D(1A) dopamine receptor) | IC50 [3] | IC50 [4] | Ki [4] | IC50 (Progesterone receptor) | IC50 [5] | IC50 (Thromboxane-A synthase; read-out: IC50) [µM]
1 | Cc1onc(-c2ccccc2)c1-c1ccc(S(N)(=O)=O)cc1 [VALDECOXIB] | Not Active | Not Active | Not Active | Not Active | Not Active | Not Active | Not Active | Not Active | Not Active | Not Active | Not Active | Not Active | Not Active | Not Active | –
2 | CC[C@]1(O)C[C@@H]2CN(CCc3c([nH]c4ccccc34)[C@@](C(=O)OC)(c3cc4c(cc3OC)N(C)[C@H]3[C@@](O)(C(=O)OC)[C@H](OC(C)=O)[C@]5(CC)C=CCN6CC[C@]43[C@@H]65)C2)C1 [VINBLASTINE] | – | Not Active | Not Active | Not Active | Not Active | Not Active | Not Active | Not Active | Not Active | Not Active | Not Active | Not Active | Not Active | Not Active | 1.87
3 | CC(=O)CC(c1ccccc1)c1c(O)c2ccccc2oc1=O (stereo unspecified) [WARFARIN] | Not Active | Not Active | Not Active | Not Active | Not Active | Not Active | Not Active | Not Active | Not Active | Not Active | Not Active | Not Active | Not Active | Not Active | –
4 | [Cl-].[Cl-].[Zn+2] [ZINC CHLORIDE] | Not Active | Not Active | Not Active | Not Active | Not Active | Not Active | Not Active | Not Active | Not Active | Not Active | Not Active | Not Active | Not Active | Not Active | –
